Source: ChEMBL document CHEMBL4823282, “Novel Broad-Spectrum Antimicrobial Peptide Derived from Anoplin and Its Activity on Bacterial Pneumonia in Mice” (J Med Chem, 2021)
Values after ≈ are worked out from the molar mass of the structure shown. Active and inactive are the calls of the source. No cut-off for these calls is given here. Where a SMILES comes first, the peptide text is derived from it.

Key:
[1] = system: Klebsiella pneumoniae; assay: Synergistic antibacterial activity against Klebsiella pneumoniae ATCC 700603 at 2 times MIC incubated for 18 to 24 hrs in presence of 2 times MIC of polymyxin B by broth microdilution assay based checkerboard assay; assay type: functional; details: time 18-24 hrs
[2] = system: Bacteria; assay: Antibacterial activity against bacteria incubated for 18 hrs by CLSI based broth dilution method; assay type: functional
[3] = system: Enterococcus faecalis; assay: Antibacterial activity against Enterococcus faecalis ATCC 29212 incubated for 18 hrs by CLSI based broth dilution method; assay type: functional
[4] = system: Escherichia coli; assay: Antibacterial activity against Escherichia coli ATCC 25922 incubated for 18 hrs by CLSI based broth dilution method; assay type: functional
[5] = system: Fungi; assay: Antibacterial activity against fungi incubated for 18 hrs by CLSI based broth dilution method; assay type: functional
[6] = system: Klebsiella pneumoniae; assay: Antibacterial activity against Klebsiella pneumoniae ATCC 700603 incubated for 18 hrs by CLSI based broth dilution method; assay type: functional
[7] = system: Escherichia coli; assay: Synergistic antibacterial activity against Escherichia coli ATCC 25922 at 2 times MIC incubated for 18 to 24 hrs in presence of 2 times MIC of gentamycin by broth microdilution assay based checkerboard assay; assay type: functional; details: time 18-24 hrs
[8] = Selectivity ratio of MHC10 for BALB/C mouse erythrocytes to MIC for gram-negative bacteria; assay type: toxicity
[9] = Cytotoxicity against human glomerular mesangial cells incubated for 12 hrs by MTT assay; assay type: cell-based; details: Glomerular mesangial cell
[10] = Selectivity ratio of MHC10 for BALB/C mouse erythrocytes to MIC for bacteria; assay type: toxicity
[11] = system: Acinetobacter baumannii; assay: Antibacterial activity against Acinetobacter baumannii ATCC 19606 incubated for 18 hrs by CLSI based broth dilution method; assay type: functional; details: ATCC 19606 = CIP 70.34 = JCM 6841
[12] = system: Staphylococcus epidermidis; assay: Antibacterial activity against Staphylococcus epidermidis ATCC 12228 incubated for 18 hrs by CLSI based broth dilution method; assay type: functional
[13] = system: Pseudomonas aeruginosa; assay: Synergistic antibacterial activity against Pseudomonas aeruginosa ATCC 27853 at 2 times MIC incubated for 18 to 24 hrs in presence of 2 times MIC of polymyxin B by broth microdilution assay based checkerboard assay; assay type: functional; details: time 18-24 hrs
[14] = system: Klebsiella pneumoniae; assay: Synergistic antibacterial activity against Klebsiella pneumoniae ATCC 700603 at 2 times MIC incubated for 18 to 24 hrs in presence of 2 times MIC of gentamycin by broth microdilution assay based checkerboard assay; assay type: functional; details: time 18-24 hrs
[15] = system: Staphylococcus aureus; assay: Antibacterial activity against Staphylococcus aureus ATCC 25923 incubated for 18 hrs by CLSI based broth dilution method; assay type: functional
[16] = system: Erythrocyte; assay: Hemolytic activity in BALB/C mouse erythrocytes incubated for 1 hr by absorbance method; assay type: ADME, cell-based
[17] = system: Bacteria; assay: Antibacterial activity against Gram-negative bacteria incubated for 18 hrs by CLSI based broth dilution method; assay type: functional
[18] = system: Bacteria; assay: Antibacterial activity against Gram-positive bacteria incubated for 18 hrs by CLSI based broth dilution method; assay type: functional
[19] = system: Bacillus subtilis; assay: Antibacterial activity against Bacillus subtilis ATCC 23857 incubated for 18 hrs by CLSI based broth dilution method; assay type: functional
[20] = Selectivity ratio of MHC10 for BALB/C mouse erythrocytes to MIC for fungi; assay type: toxicity
[21] = Selectivity ratio of MHC10 for BALB/C mouse erythrocytes to MIC for gram positive bacteria; assay type: toxicity
[22] = system: Klebsiella pneumoniae; assay: Synergistic antibacterial activity against Klebsiella pneumoniae ATCC 700603 at 2 times MIC incubated for 18 to 24 hrs in presence of 2 times MIC of rifampicin by broth microdilution assay based checkerboard assay; assay type: functional; details: time 18-24 hrs
[23] = system: Escherichia coli; assay: Synergistic antibacterial activity against Escherichia coli ATCC 25922 at 2 times MIC incubated for 18 to 24 hrs in presence of 2 times MIC of polymyxin B by broth microdilution assay based checkerboard assay; assay type: functional; details: time 18-24 hrs
[24] = system: Escherichia coli; assay: Synergistic antibacterial activity against Escherichia coli ATCC 25922 at 2 times MIC incubated for 18 to 24 hrs in presence of 2 times MIC of rifampicin by broth microdilution assay based checkerboard assay; assay type: functional; details: time 18-24 hrs
[25] = system: Pseudomonas aeruginosa; assay: Antibacterial activity against Pseudomonas aeruginosa ATCC 27853 incubated for 18 hrs by CLSI based broth dilution method; assay type: functional
[26] = system: Pseudomonas aeruginosa; assay: Synergistic antibacterial activity against Pseudomonas aeruginosa ATCC 27853 at 2 times MIC incubated for 18 to 24 hrs in presence of 2 times MIC of rifampicin by broth microdilution assay based checkerboard assay; assay type: functional; details: time 18-24 hrs
[27] = system: Klebsiella pneumoniae; assay: Antibiofilm activity against Klebsiella pneumoniae ATCC 700603 at 2 to 4 times MIC incubated for 24 hrs by crystal violet staining based assay; assay type: functional, organism-based
[28] = system: Staphylococcus aureus; assay: Antibacterial activity against Staphylococcus aureus ATCC 25923 incubated with 0.02 ug/ml trypsin for 6 hrs followed by bacterial addition and measured after 18 hrs by CLSI based broth dilution method; assay type: functional, organism-based; details: dose 0.02 µg/ml, time 23.0 hrs
[29] = system: Staphylococcus aureus; assay: Antibacterial activity against Staphylococcus aureus ATCC 25923 incubated with 0.02 ug/ml chymotrypsin for 6 hrs followed by bacterial addition and measured after 18 hrs by CLSI based broth dilution method; assay type: functional, organism-based; details: dose 0.02 µg/ml, time 23.0 hrs
[30] = system: Escherichia coli; assay: Antibiofilm activity against Escherichia coli ATCC 25922 at 4 times MIC incubated for 24 hrs by crystal violet staining based assay; assay type: functional, organism-based
[31] = system: Staphylococcus aureus; assay: Antibacterial activity against Staphylococcus aureus ATCC 25923 at 0.5 to 1 times MIC incubated for 24 hrs by crystal violet staining based assay; assay type: functional, organism-based
[32] = system: Klebsiella pneumoniae; assay: Antibacterial activity against Klebsiella pneumoniae ATCC 700603 incubated with 0.02 ug/ml chymotrypsin for 6 hrs followed by bacterial addition and measured after 18 hrs by CLSI based broth dilution method; assay type: functional, organism-based; details: dose 0.02 µg/ml, time 23.0 hrs
[33] = system: Klebsiella pneumoniae; assay: Antibacterial activity against Klebsiella pneumoniae ATCC 700603 incubated with 0.02 ug/ml trypsin for 6 hrs followed by bacterial addition and measured after 18 hrs by CLSI based broth dilution method; assay type: functional, organism-based; details: dose 0.02 µg/ml, time 23.0 hrs

In the case of `CC(C)C[C@H](NC(=O)CN)C(=O)N[C@@H](Cc1c[nH]c2ccccc12)C(=O)N[C@@H](CCCCN)C(=O)N[C@@H](CCCNC(=N)N)C(=O)N[C@@H](Cc1c[nH]c2ccccc12)C(=O)N[C@@H](CCCCN)C(=O)N[C@@H](CCCCN)C(=O)N[C@@H](Cc1ccccc1)C(=O)N[C@@H](Cc1c[nH]c2ccccc12)C(N)=O` (H-GLWKRWKKFW-NH2), the FIC [1] is reported as 0.5625, the MIC [2] is reported as 10.4 µM (≈ 14.9 µg/mL) and the MIC [3] is reported as 32 µM (≈ 45.9 µg/mL). The MIC [4] was 8 µM (≈ 11.5 µg/mL), the MIC [5] was 10.4 µM (≈ 14.9 µg/mL) and the MIC [6] was 8 µM (≈ 11.5 µg/mL). It also gave an FIC [7] of 0.5, a selectivity ratio [8] of 10.4 and an IC50 [9] of 39 µM. The selectivity ratio [10] was 8.06, the MIC [11] was 16 µM (≈ 22.9 µg/mL) and the MIC [12] was 16 µM (≈ 22.9 µg/mL). For the same molecule, the FIC [13] was 0.25, the FIC [14] was 0.75 and the MIC [15] was 8 µM (≈ 11.5 µg/mL). For the same molecule, the MHC10 [16] was 83.63 µM, the MIC [17] was 8 µM (≈ 11.5 µg/mL) and the MIC [18] was 13.5 µM (≈ 19.4 µg/mL). For the same molecule, the MIC [19] was 8 µM (≈ 11.5 µg/mL), the selectivity ratio [20] was 8.06 and the selectivity ratio at 18 h [21] was 6.19. The FIC [22] was 0.5625, the FIC [23] was 0.3125 and the FIC [24] was 0.5. The MIC [25] was 8 µM (≈ 11.5 µg/mL) and the FIC [26] was 0.3125.

Molecule `CC[C@H](C)[C@H](NC(=O)CN)C(=O)NCC(=O)N[C@@H](C)C(=O)N[C@H](C(=O)N[C@@H](CC(C)C)C(=O)N[C@@H](CCCCN)C(=O)N[C@H](C(=O)N[C@@H](CC(C)C)C(=O)N[C@H](C(=O)N[C@H](C(=O)NCC(=O)N[C@@H](CC(C)C)C(=O)N1CCC[C@H]1C(=O)N[C@@H](C)C(=O)N[C@@H](CC(C)C)C(=O)N[C@H](C(=O)N[C@@H](CO)C(=O)N[C@@H](Cc1c[nH]c2ccccc12)C(=O)N[C@H](C(=O)N[C@@H](CCCCN)C(=O)N[C@@H](CCCNC(=N)N)C(=O)N[C@@H](CCCCN)C(=O)N[C@@H](CCCNC(=N)N)C(=O)N[C@@H](CCC(N)=O)C(=O)N[C@@H](CCC(N)=O)C(N)=O)[C@@H](C)CC)[C@@H](C)CC)[C@@H](C)O)[C@@H](C)O)C(C)C)C(C)C` [MELITTIN] has an MIC [2] of 4 µM (≈ 11.4 µg/mL), an MIC [3] of 4 µM (≈ 11.4 µg/mL) and an MIC [5] of 4 µM (≈ 11.4 µg/mL). The MIC [6] was 16 µM (≈ 45.5 µg/mL), the Activity [27] was “Active” and the selectivity ratio [8] was 0.34. The selectivity ratio [10] was 57, the MIC [11] was 2 µM (≈ 5.69 µg/mL) and the Activity [28] was “inactive”. For the same molecule, the Activity [29] was “inactive”, the Activity [30] was “Active” and the Activity [31] was “Active”. The MHC10 [16] was 2.26 µM, the MIC [17] was 6.73 µM (≈ 19.2 µg/mL) and the MIC [18] was 2.38 µM (≈ 6.77 µg/mL). The selectivity ratio [20] was 57, the Activity [32] was “inactive” and the selectivity ratio at 18 h [21] was 0.95. The Activity [33] was “inactive”.

Molecule `N=C(N)NCCC[C@H](NC(=O)[C@H](CCCCN)NC(=O)[C@H](Cc1c[nH]c2ccccc12)NC(=O)[C@H](Cc1c[nH]c2ccccc12)NC(=O)[C@@H](N)CCCCN)C(=O)N[C@@H](Cc1c[nH]c2ccccc12)C(=O)N[C@@H](CCCCN)C(=O)N[C@@H](CCCCN)C(=O)N[C@@H](Cc1c[nH]c2ccccc12)C(=O)N[C@@H](Cc1c[nH]c2ccccc12)C(N)=O` (H-KWWKRWKKWW-NH2) has an MIC [2] of 9.51 µM (≈ 15.4 µg/mL), an MIC [3] of 16 µM (≈ 25.9 µg/mL) and an MIC [4] of 16 µM (≈ 25.9 µg/mL). It also gave an MIC [5] of 9.51 µM (≈ 15.4 µg/mL), an MIC [6] of 16 µM (≈ 25.9 µg/mL) and a selectivity ratio [8] of 6.87. It also gave an IC50 [9] of 19.8 µM, a selectivity ratio [10] of 8.16 and an MIC [11] of 8 µM (≈ 12.9 µg/mL). For the same molecule, the MIC [12] was 8 µM (≈ 12.9 µg/mL), the FIC [13] was 0.25 and the MIC [15] was 8 µM (≈ 12.9 µg/mL). It also gave an MHC10 [16] of 77.65 µM, an MIC [17] of 11.3 µM (≈ 18.3 µg/mL) and an MIC [18] of 8 µM (≈ 12.9 µg/mL). It also gave an MIC [19] of 4 µM (≈ 6.47 µg/mL), a selectivity ratio [20] of 8.16 and a selectivity ratio at 18 h [21] of 9.71. It also gave an MIC [25] of 16 µM (≈ 25.9 µg/mL) and an FIC [26] of 0.3125.
